# Experimental data: PubChem BioAssay AID588647 (Sanford-Burnham Center for Chemical Genomics, 2011)
# Activity calls are given as the source filed them. How the calls were made is not given here.
# Target: intestinal alkaline phosphatase (Mus musculus)
# Assay: mouse IAP inhibition by analogs – biochemical, luminescence, set 2, SAR follow-up (AID 588647)
# Conditions: purified mouse IAP, luminescent substrate read-out
row,SMILES,IC50
1,CCc1ccc(NC(=O)CCNS(=O)(=O)c2ccc3c(c2)oc(=O)n3C)cc1,> 100 µM (inactive)
2,COc1ccc(NC(=O)CCNS(=O)(=O)c2ccc3c(c2)CCC3)cc1OC,> 100 µM (inactive)
3,CCOc1ccc(CNC(=O)C2CCCN(S(=O)(=O)c3ccc4[nH]c(=O)oc4c3)C2)cc1OC (stereo not drawn),> 100 µM (inactive)
4,CC(C)c1ccc(NC(=O)CCNS(=O)(=O)c2ccc3c(c2)oc(=O)n3C)cc1,> 100 µM (inactive)
5,O=C(NCc1ccc2c(c1)OCO2)C1CCCN(S(=O)(=O)c2ccc3[nH]c(=O)oc3c2)C1 (stereo not drawn),> 100 µM (inactive)
6,O=C(CCNS(=O)(=O)c1ccc2[nH]c(=O)oc2c1)NCc1cccc(Cl)c1,> 100 µM (inactive)
7,COc1cc(C(=O)N/N=C/c2c(F)cccc2Cl)cc(OC)c1OC,> 100 µM (inactive)
8,O=C(N/N=C/c1c(Cl)cccc1Cl)c1cc(O)c(O)c(O)c1,11.1 µM
9,O=C(N/N=C/c1cccc(Cl)c1Cl)c1cc(O)c(O)c(O)c1,19.9 µM
10,O=C(CCS(=O)(=O)Nc1ccc2[nH]c(=O)oc2c1)NCc1ccccc1Cl,86 µM
11,O=C(CCNS(=O)(=O)c1ccc2[nH]c(=O)oc2c1)NCc1ccccc1,81 µM
12,COc1ccc(/C=N/NC(=O)c2cc(O)c(O)c(O)c2)cc1OC,> 100 µM (inactive)
13,Cc1ccc(C)c(NC(=O)CCNS(=O)(=O)c2ccc3c(c2)CCC3)c1,> 100 µM (inactive)
14,Cc1ccccc1CNC(=O)CCCNS(=O)(=O)c1ccc2[nH]c(=O)oc2c1,> 100 µM (inactive)
15,O=C(CCNS(=O)(=O)c1ccc2[nH]c(=O)oc2c1)NCCc1ccc(O)cc1,> 100 µM (inactive)
16,CC(=NNC(=O)c1ccccc1OCCOc1ccccc1)c1ccccc1F,> 100 µM (inactive)
17,CCOc1cc(C(=O)N/N=C/c2ccccc2F)cc(OCC)c1OCC,> 100 µM (inactive)
18,O=C(CCNS(=O)(=O)c1ccc2[nH]c(=O)oc2c1)NCc1cccc(C(F)(F)F)c1,70 µM
